Reference: patent US20240226120A1 (priority 2020, published 2024)

Experiments:
[1] = test system: interferon and interferon-induced antiviral effector gene expression in cells expressing ORF8; experiment: qPCR of interferons and effector gene expression, ORF8; assay type: cell-based, human
[2] = test system: interferon and interferon-induced antiviral effector gene expression in cells expressing ORF10; experiment: qPCR of interferons and effector gene expression, ORF10; assay type: cell-based, human

Question: Which “Interferon Lambda 1 mRNA expression” value ([1]; ORF8, 1 μM CBD vs vehicle alone, 24 hours (FIG. 9A)) does the source give for C=C(C)[C@@H]1CCC(C)=C[C@H]1c1c(O)cc(CCCCC)cc1O [Cannabidiol, 2-[(1R,6R)-3-Methyl-6-(1-methylethenyl)-2-cyclohexen-1-yl]-5-pentyl-1,3-benzenediol] here?
Answer: significantly increased

Question: What about the “extent of OAS1 augmentation compared with cells transfected with control vector” value ([1]; ORF8, 1 μM CBD, 24 hours) of the same compound?
Answer: significantly higher

Question: And the INF-gamma expression ([1]; ORF8, 1 μM CBD, 24 hours, compared with effect in control cells (FIG. 9B))?
Answer: greater effect

Question: What about the OAS1 gene expression ([1]; ORF8, 1 μM CBD, 24 hours, relative to all other groups and treatments (FIG. 10)) of the same compound?
Answer: highly significant increase

Question: And the “induction of OAS1” value ([2]; ORF10, 1 μM CBD relative to vehicle alone, 24 hours (FIG. 14))?
Answer: significantly increased

Question: And the “OAS1 induction compared with CBD plus control plasmid” value ([2]; ORF10, 1 μM CBD, 24 hours)?
Answer: lower
